Read-outs that look alike come from different tables or passages of the source.
Assays:
[1] = target: human Cereblon WT GST-tagged protein (Homo sapiens (Human), UniProt Q96SW2); assay: CRBN binding, HTRF (CEREBLON BINDING kit)
Procedure: Determination of CRBN-Binding Affinity of Compounds
The CEREBLON BINDING kits (specification: 10,000 tests; product number: Catalog #64BDCRBNPEH; CISBIO company) was used to determine the CRBN binding ability of the compounds to be tested through a HTRF method (homogeneous time-resolved fluorescence). The specific methods are as follows: • 1. […] Then, 2.5 μL of (human Cereblon WT GST-tagged protein) solution was added to each well. Finally, 5 μL of the uniformly mixed thalidomide-Red reagent and GST Eu antibody working solution were added to each of the above wells. […] The blank control wells were sequentially added with 2.5 μL of diluent #9 (1×) solution, 2.5 μL of ligand binding buffer, and 5 μL of uniformly mixed thalidomide-Red reagent and GST Eu antibody working solution. • 4. […] The corresponding CRBN binding inhibition rate was calculated using the following method: […]

LNcap = assay: CCK-8 tumor cell proliferation, LNcap; format: cell-based, Human; conditions: 96 h, read-out: IC50 for inhibiting the proliferation of tumor cells, LNcap
Procedure: (§1) Determination of half inhibitory concentration (IC50) of the compounds against tumor cells:
(§2) The tumor cells used herein were cultured in a cell culture medium listed in table 6 at 37° C. in an incubator with 5% CO2. Prior to experimentation, all cells used were correctly identified by STR profiling, and tested negative for mycoplasma through routine screenings.
(§3) IC50 values of the compounds of the present disclosure (including the compounds in Table 4 and compounds of examples 1-72) were measured using the Meilun Cell Counting Kit-S kit from Dalian Meilun Biotech Co., Ltd. Assay details are as follows: tumor cells were seeded in a 96-well plate at a density listed in Table 7. After 24 h, 100 μL of the inoculated cells were treated with 0.5 μL of the compounds of the present disclosure (including the compounds in Table 4 and compounds of examples 1-72) at 10 different successively decreasing concentrations (starting at the highest concentration of 10 μM; 5-fold serial dilutions). After the cells were treated with the compounds of the present disclosure for a period of time (the treatment times listed in Table 7), the cell viability detection reagent was added to the culture medium for cell viability assessment according to the instructions provided with the CCK-8 kit. […] The growth inhibition of the compounds of the present disclosure on cells was plotted by Prism Graphpad software, and the IC50 values of the compounds of the present disclosure were calculated therefrom.

PC-3 = assay: CCK-8 tumor cell proliferation, PC-3; format: cell-based, Human; conditions: PC-3, 96 h, read-out: IC50 for inhibiting the proliferation of tumor cells, PC-3
Procedure: as §1
(§4) The tumor cells used herein were cultured in a cell culture medium listed in table 6 at 37° C. in an incubator with 5% CO2.
(§5) After the cells were treated with the compounds of the present disclosure for a period of time (the treatment times listed in Table 7), the cell viability detection reagent was added to the culture medium for cell viability assessment according to the instructions provided with the CCK-8 kit. […] The growth inhibition of the compounds of the present disclosure on cells was plotted by Prism Graphpad software, and the IC50 values of the compounds of the present disclosure were calculated therefrom.

DU-145 = assay: CCK-8 tumor cell proliferation, DU-145; format: cell-based, Human; conditions: DU-145, 96 h, read-out: IC50 for inhibiting the proliferation of tumor cells, DU-145
Procedure: as §1, §4, §5

WSU-DLCL2 = assay: CCK-8 tumor cell proliferation, WSU-DLCL2; format: cell-based, Human; conditions: read-out: IC50 for inhibiting the proliferation of tumor cells, WSU-DLCL2
Procedure: as §1, §4, §5

MGC80-3 = assay: CCK-8 tumor cell proliferation, MGC80-3; format: cell-based, Human; conditions: read-out: IC50 for inhibiting the proliferation of tumor cells, MGC80-3
Procedure: as §1, §2, §3

Hep3B2.1-7 = assay: CCK-8 tumor cell proliferation, Hep3B2.1-7; format: cell-based, Human; conditions: Homo sapiens, Hep3B2.1-7, 96 h, read-out: IC50 for inhibiting the proliferation of tumor cells, Hep3B2.1-7
Procedure: as §1, §2, §3

Kasumi-1 = assay: CCK-8 tumor cell proliferation, Kasumi-1; format: cell-based; conditions: Homo sapiens, Kasumi-1, 72 h, read-out: IC50 for inhibiting the proliferation of tumor cells, Kasumi-1
Procedure: as §1, §4, §5

SU-DHL-6 = assay: CCK-8 tumor cell proliferation, SU-DHL-6; format: cell-based; conditions: Homo sapiens, SU-DHL-6, 72 h, read-out: IC50 for inhibiting the proliferation of tumor cells, SU-DHL-6
Procedure: as §1, §4, §5

[2] = Homo sapiens, WSUDLCL2, WSU-DLCL2, 96 h
[3] = Homo sapiens, MGC-803, MGC80-3, 96 h

Chain of human Cereblon WT GST-tagged protein (Q96SW2 whole entry): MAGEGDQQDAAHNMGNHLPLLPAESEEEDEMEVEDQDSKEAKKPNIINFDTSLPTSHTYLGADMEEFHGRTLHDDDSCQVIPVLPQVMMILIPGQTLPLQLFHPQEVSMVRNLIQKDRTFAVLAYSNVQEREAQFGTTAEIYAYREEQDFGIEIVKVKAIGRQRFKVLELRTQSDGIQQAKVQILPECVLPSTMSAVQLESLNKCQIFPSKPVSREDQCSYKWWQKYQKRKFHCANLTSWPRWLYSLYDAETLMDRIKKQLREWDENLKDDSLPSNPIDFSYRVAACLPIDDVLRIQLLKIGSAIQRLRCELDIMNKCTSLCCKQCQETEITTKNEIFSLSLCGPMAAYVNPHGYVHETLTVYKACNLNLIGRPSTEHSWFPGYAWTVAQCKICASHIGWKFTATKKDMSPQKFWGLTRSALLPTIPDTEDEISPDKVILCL

O=C1CCC(N2C(=O)c3ccc(N4CC5CCC4CN5)cc3C2=O)C(=O)N1 (centres unmarked) [GT-03076, 5-(2,5-diazabicyclo[2.2.2]octan-2-yl)-2-(2,6-dioxopiperidin-3-yl)isoindoline-1,3-dione]
IC50 [1]: 650 nM

O=C1CCC(N2C(=O)c3ccc(N4CC5CCC(C4)N5)cc3C2=O)C(=O)N1 (centres unmarked) [GT-03077, 5-(3,8-diazabicyclo[3.2.1]octan-3-yl)-2-(2,6-dioxopiperidin-3-yl)isoindoline-1,3-dione]
IC50 [1]: 5200 nM

O=C1CCC(N2C(=O)c3ccc(N4C5CNCC4C5)cc3C2=O)C(=O)N1 (centres unmarked) [GT-03100, 5-(3,6-diazabicyclo[3.1.1]heptan-6-yl)-2-(2,6-dioxopiperidin-3-yl)isoindoline-1,3-dione]
IC50 [1]: 9800 nM

O=C1CCC(N2C(=O)c3cc(F)c(N4C5CNCC4C5)cc3C2=O)C(=O)N1 (centres unmarked) [GT-03106, 5-(3,6-diazabicyclo[3.1.1]heptan-6-yl)-2-(2,6-dioxopiperidin-3-yl)-6-fluoroisoindoline-1,3-dione]
IC50 [1]: 4040 nM

[2H]C1([2H])NC([2H])([2H])C([2H])([2H])N(c2cc3c(cc2F)C(=O)N(C2CCC(=O)NC2=O)C3=O)C1([2H])[2H] (centres unmarked) [GT-03108, 2-(2,6-dioxopiperidin-3-yl)-5-fluoro-6-(piperazin-1-yl-2,2,3,3,5,5,6,6-d8)isoindoline-1,3-dione]
IC50 [1]: 8750 nM

O=C1CCC(N2C(=O)c3cc(F)c(N4CC5CC(C4)N5)cc3C2=O)C(=O)N1 (centres unmarked) [GT-03109, 5-(3,6-diazabicyclo[3.1.1]heptan-3-yl)-2-(2,6-dioxopiperidin-3-yl)-6-fluoroisoindoline-1,3-dione]
IC50 [1]: 3550 nM

O=C1CCC(N2C(=O)c3ccc(N4C5CCC4CNC5)cc3C2=O)C(=O)N1 (centres unmarked) [GT-03210, 5-(3,8-diazabicyclo[3.2.1]octan-8-yl)-2-(2,6-dioxopiperidin-3-yl)isoindoline-1,3-dione]
IC50 [1]: 2690 nM

O=C1CCC(N2C(=O)c3cc(F)c(N4C5CCC4CNC5)cc3C2=O)C(=O)N1 (centres unmarked) [GT-03211, 5-(3,8-diazabicyclo[3.2.1]octan-8-yl)-2-(2,6-dioxopiperidin-3-yl)-6-fluoroisoindoline-1,3-dione]
IC50 [1]: 9800 nM

N#Cc1ccc(OC2CCC(NC(=O)c3ccc(N4CCC(CN5CC6CC(C5)N6c5ccc6c(c5)C(=O)N(C5CCC(=O)NC5=O)C6=O)CC4)nn3)CC2)cc1Cl (centres unmarked) [GT-03339, N-((1r,4r)-4-(3-chloro-4-cyanophenoxy)cyclohexyl)-6-(4-((6-(2-(2,6-dioxopiperidin-3-yl)-1,3-dioxoisoindolin-5-yl)-3,6-diazabicyclo[3.1.1]heptan-3-yl)methyl)piperidin-1-yl)pyridazine-3-carboxamide]
IC50 (LNcap): 100 to 500 nM
IC50 (PC-3): 100 to 500 nM
IC50 (DU-145): 100 to 500 nM
IC50 (WSU-DLCL2; WSU-DLCL2, 96 h): 100 to 500 nM
IC50 (MGC80-3; MGC80-3, 96 h): 50 to 100 nM

CC1(C)[C@H](NC(=O)c2ccc(N3CCC(CN4C5CCC4CN(c4ccc6c(c4)C(=O)N(C4CCC(=O)NC4=O)C6=O)C5)CC3)nn2)C(C)(C)[C@H]1Oc1ccc(C#N)c(Cl)c1 (some centres unmarked) [GT-03399, N-((1r,3r)-3-(3-chloro-4-cyanophenoxy)-2,2,4,4-tetramethylcyclobutyl)-6-(4-((3-(2-(2,6-dioxopiperidin-3-yl)-1,3-dioxoisoindolin-5-yl)-3,8-diazabicyclo[3.2.1]octan-8-yl)methyl)piperidin-1-yl)pyridazine-3-carboxamide]
IC50 (LNcap; Homo sapiens): 100 to 500 nM
IC50 (PC-3; Homo sapiens): 100 to 500 nM
IC50 (DU-145; Homo sapiens): 100 to 500 nM
IC50 (WSU-DLCL2; [2]): 500 to 1000 nM
IC50 (Hep3B2.1-7): 100 to 500 nM

CC1(C)[C@H](NC(=O)c2ccc(N3CCC(CN4CC5CC(C4)N5c4ccc5c(c4)C(=O)N(C4CCC(=O)NC4=O)C5=O)CC3)nn2)C(C)(C)[C@H]1Oc1ccc(C#N)c(Cl)c1 (some centres unmarked) [GT-03400, N-((1r,3r)-3-(3-chloro-4-cyanophenoxy)-2,2,4,4-tetramethylcyclobutyl)-6-(4-((6-(2-(2,6-dioxopiperidin-3-yl)-1,3-dioxoisoindolin-5-yl)-3,6-diazabicyclo[3.1.1]heptan-3-yl)methyl)piperidin-1-yl)pyridazine-3-carboxamide]
IC50 (LNcap; Homo sapiens): 100 to 500 nM
IC50 (PC-3; Homo sapiens): 100 to 500 nM
IC50 (DU-145; Homo sapiens): 100 to 500 nM
IC50 (WSU-DLCL2; [2]): 500 to 1000 nM
IC50 (MGC80-3; [3]): 100 to 500 nM

CC1(C)[C@H](NC(=O)c2ccc(N3CCC(CN4C5CC4CN(c4ccc6c(c4)C(=O)N(C4CCC(=O)NC4=O)C6=O)C5)CC3)nn2)C(C)(C)[C@H]1Oc1ccc(C#N)c(Cl)c1 (some centres unmarked) [GT-03401, N-((1r,3r)-3-(3-chloro-4-cyanophenoxy)-2,2,4,4-tetramethylcyclobutyl)-6-(4-((3-(2-(2,6-dioxopiperidin-3-yl)-1,3-dioxoisoindolin-5-yl)-3,6-diazabicyclo[3.1.1]heptan-6-yl)methyl)piperidin-1-yl)pyridazine-3-carboxamide]
IC50 (LNcap; Homo sapiens): 500 to 1000 nM
IC50 (PC-3; Homo sapiens): 100 to 500 nM
IC50 (DU-145; Homo sapiens): 500 to 1000 nM
IC50 (WSU-DLCL2; [2]): 1000 to 5000 nM
IC50 (MGC80-3; [3]): 100 to 500 nM

CC1(C)[C@H](NC(=O)c2ccc(N3CCC(CN4CC5CC(C4)N5c4cc5c(cc4F)C(=O)N(C4CCC(=O)NC4=O)C5=O)CC3)nc2)C(C)(C)[C@H]1Oc1ccc(C#N)c(Cl)c1 (some centres unmarked) [GT-03403, N-((1r,3r)-3-(3-chloro-4-cyanophenoxy)-2,2,4,4-tetramethylcyclobutyl)-6-(4-((6-(2-(2,6-dioxopiperidin-3-yl)-6-fluoro-1,3-dioxoisoindolin-5-yl)-3,6-diazabicyclo[3.1.1]heptan-3-yl)methyl)piperidin-1-yl)nicotinamide]
IC50 (LNcap; Homo sapiens): 500 to 1000 nM
IC50 (PC-3; Homo sapiens): 100 to 500 nM
IC50 (DU-145; Homo sapiens): 100 to 500 nM
IC50 (WSU-DLCL2; [2]): 5000 to 10000 nM
IC50 (MGC80-3; [3]): 500 to 1000 nM

Cc1nc(Nc2ncc(C(=O)Nc3c(C)cccc3Cl)s2)cc(N2CCC(CN3CC4CCC(C3)N4c3cc4c(cc3F)C(=O)N(C3CCC(=O)NC3=O)C4=O)CC2)n1 (centres unmarked) [GT-03627, N-(2-chloro-6-methylphenyl)-2-((6-(4-((8-(2-(2,6-dioxopiperidin-3-yl)-6-fluoro-1,3-dioxoisoindolin-5-yl)-3,8-diazabicyclo[3.2.1]octan-3-yl)methyl)piperidin-1-yl)-2-methylpyrimidin-4-yl)amino)thiazole-5-carboxamide]
IC50 (Kasumi-1): 100 to 500 nM
IC50 (SU-DHL-6): 100 to 500 nM

Cc1nc(Nc2ncc(C(=O)Nc3c(C)cccc3Cl)s2)cc(N2CCC(CN3CC4CC(C3)N4c3cc4c(cc3F)C(=O)N(C3CCC(=O)NC3=O)C4=O)CC2)n1 (centres unmarked) [GT-03628, N-(2-chloro-6-methylphenyl)-2-((6-(4-((6-(2-(2,6-dioxopiperidin-3-yl)-6-fluoro-1,3-dioxoisoindolin-5-yl)-3,6-diazabicyclo[3.1.1]heptan-3-yl)methyl)piperidin-1-yl)-2-methylpyrimidin-4-yl)amino)thiazole-5-carboxamide]
IC50 (Kasumi-1): 100 to 500 nM

Cc1nc(Nc2ncc(C(=O)Nc3c(C)cccc3Cl)s2)cc(N2CCC(CN3CC4CCC(C3)N4c3ccc4c(c3)C(=O)N(C3CCC(=O)NC3=O)C4=O)CC2)n1 (centres unmarked) [GT-03629, N-(2-chloro-6-methylphenyl)-2-((6-(4-((8-(2-(2,6-dioxopiperidin-3-yl)-1,3-dioxoisoindolin-5-yl)-3,8-diazabicyclo[3.2.1]octan-3-yl)methyl)piperidin-1-yl)-2-methylpyrimidin-4-yl)amino)thiazole-5-carboxamide]
IC50 (Kasumi-1): 100 to 500 nM
IC50 (SU-DHL-6): 100 to 500 nM

— patent US20250243210A1, “CRBN E3 LIGASE LIGAND COMPOUND, PROTEIN DEGRADER DEVELOPED BASED THEREON AND THEIR APPLICATIONS” (GLUETACS THERAPEUTICS (SHANGHAI) CO., LTD., priority 2021, published 2025)
